In PubChem BioAssay AID720513 (Broad Institute, 2013):
Inconclusive results are not listed.

Test system: U2OS PGC1a acetylation AlphaLISA, overnight
Assay: PGC1a acetylation increase, cellular AlphaLISA – cell-based, cherry-picked samples, set 6, dose response (AID 720513);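 further: cells made to overexpress flag tagged PGC1a plus GCN5 acetyltransferase by viral infection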

Q: How did the AC40 turn out when Oc1ccc(Nc2nnc(-c3ccc(O)cc3)c3ccccc23)cc1 was run?
A: 1.57 µM

Q: Cc1nc(N2CCN(S(=O)(=O)c3ccc(F)cc3)CC2)c2c(-c3cccs3)csc2n1 was tested. Which AC40 did it give?
A: 3.27 µM

Q: With COc1ccccc1/C=C1\SC(=O)N(CCC(=O)NCCCn2ccnc2)C1=O as the compound, how does the AC40 read?
A: 2.07 µM

Q: Which AC40 does the source give for COc1ccc(CCNC(=O)COc2ccc(S(=O)(=O)N3CCCC3)cc2)cc1 here?
A: 19.3 µM

Q: With CC(=O)Nc1nonc1-c1nc2ccccc2n1Cc1ccccc1 as the compound, how does the AC40 read?
A: 4.88 µM

Q: Cc1c(OCc2ccc(C(=O)O)cc2)ccc2c(-c3ccccc3)cc(=O)oc12 was tested. Which AC40 did it give?
A: 7.28 µM

Q: With CN1Cc2c(N3CCOCC3)nc3sc(C(=O)c4ccc(Br)cc4)c(N)c3c2CC1(C)C as the compound, how does the AC40 read?
A: 0.996 µM

Q: With CCOC(=O)C1(N(CC)CC)Sc2cc(C)ccc2NC1=O (stereo unspecified) as the compound, how does the AC40 read?
A: 3.28 µM

Q: With Cc1c(C(=O)NCCSCc2c(F)cccc2Cl)cnn1-c1ccc(Cl)cc1 as the compound, how does the AC40 read?
A: 10.5 µM

Q: For COc1cccc(N(CC(=O)NCc2cccnc2)S(C)(=O)=O)c1, which AC40 is on record?
A: 14.2 µM

Q: With Cc1ccc2c(CN(Cc3ccccc3)Cc3ccccc3)cc(=O)oc2c1 as the compound, how does the AC40 read?
A: 6.06 µM

Q: How did the AC40 turn out when CCOC(=O)c1c(CN2CCN(CC#N)CC2)n(C)c2cc(Br)c(OC)cc12 was run?
A: 0.701 µM

Q: For O=C(Cc1ccccc1)Nc1ccc(NC(=O)c2ccco2)nc1, which AC40 is on record?
A: 1.44 µM

Q: Cc1cc(C(F)(F)F)n(-c2nc(C(=O)NNS(=O)(=O)c3ccccc3[N+](=O)[O-])cs2)n1 was tested. Which AC40 did it give?
A: 3.43 µM

Q: For C[C@@H]1CN([C@H](C)CO)C(=O)c2c(c3ccccc3n2C)-c2ccccc2CO[C@@H]1CN(C)C(=O)[C@H](C)c1ccccc1, which AC40 is on record?
A: 3.36 µM

Q: With CCc1nnc(NC(=O)Cc2ccc(S(=O)(=O)N3CCCCC3)cc2)s1 as the compound, how does the AC40 read?
A: 16.6 µM

Q: With CCOC(=O)c1c(-c2ccc(C)cc2C)csc1NC(=O)CSc1nnnn1C as the compound, how does the AC40 read?
A: 8.11 µM

Q: For CCCCSc1ccc(NC(=O)c2cccnc2)cc1, which AC40 is on record?
A: 1.78 µM

Q: With Cc1cc(C)cc(N(CC(=O)NC2CC3CCC2C3)S(C)(=O)=O)c1 (stereo unspecified) as the compound, how does the AC40 read?
A: 17.1 µM

Q: For CN1c2ccccc2C2(C)CCCC3=Cc4cccc([N+](=O)[O-])c4OC312 (stereo unspecified), which AC40 is on record?
A: 0.48 µM

Q: O=C(CCCc1nc(-c2ccccc2Cl)no1)NCc1cccnc1 was tested. Which AC40 did it give?
A: 3.78 µM

Q: How did the AC40 turn out when O=S(=O)(NC12CC3CC(CC(C3)C1)C2)c1ccc(F)cc1 was run?
A: 4.02 µM

Q: For COc1ccc(NC(=O)Cn2ncc(Cl)c(Cl)c2=O)cc1S(=O)(=O)N1CCOCC1, which AC40 is on record?
A: 1.6 µM

Q: Cc1cc2cc3c(cc2nc1SCC(=O)OC(C)C)OCCO3 was tested. Which AC40 did it give?
A: 11.5 µM

Q: With O=C(CC1SC(=NCc2ccccc2)NC1=O)Nc1ccccc1 (stereo unspecified) as the compound, how does the AC40 read?
A: 0.632 µM

Q: O=C(Nc1cccnc1)c1ccc(Br)s1 was tested. Which AC40 did it give?
A: 0.601 µM

Q: For Cc1ccc2[nH]c(=O)c(CN(Cc3ccc4c(c3)OCO4)Cc3nnnn3C3CCCC3)cc2c1, which AC40 is on record?
A: 7.98 µM

Q: O=S(=O)(c1ccc(Cl)cc1)N1[C@@H]2CNC[C@H]1C2c1ccc(-c2cccc(F)c2)cc1 (stereo partly specified) was tested. Which AC40 did it give?
A: < 2.6 µM

Q: CC1CC(NS(=O)(=O)c2cccs2)CC(C)(C)C1 (stereo unspecified) was tested. Which AC40 did it give?
A: 0.437 µM

Q: For COc1ccc(C#Cc2cnc3c(c2)C(=O)N([C@H](C)CO)C[C@H](C)[C@H](CN(C)S(=O)(=O)c2cccc(F)c2)O3)cc1OC, which AC40 is on record?
A: 18.8 µM

Q: With COc1ccc(S(=O)(=O)N2CCOCC2)cc1NC(=O)CCNC(=O)c1ccc(Cl)cc1 as the compound, how does the AC40 read?
A: 0.772 µM

Q: For O=C(NCc1cccnc1)c1ccc(NC(=O)c2cccc([N+](=O)[O-])c2)cc1, which AC40 is on record?
A: < 0.16 µM

Q: Which AC40 does the source give for CCOC(=O)C1(Cc2ccccc2)CCN(Cc2cccc(OC)c2O)CC1 here?
A: 6.65 µM

Q: For c1ccc(Cn2nnnc2C(c2cccs2)N2CCCCCC2)cc1 (stereo unspecified), which AC40 is on record?
A: 14.2 µM

Q: C[C@H]1CN([C@@H](C)CO)C(=O)c2cccc(NC(=O)c3cnccn3)c2O[C@H]1CN(C)Cc1ccc(C(=O)Nc2ccccc2N)cc1 was tested. Which AC40 did it give?
A: < 2.6 µM

Q: For CCSc1ccc(NC(=O)c2cccnc2)cc1, which AC40 is on record?
A: 1.65 µM

Q: For CC1CC1C(=O)OCC(=O)NCc1ccc(Cl)cc1 (stereo unspecified), which AC40 is on record?
A: 18.2 µM

Q: How did the AC40 turn out when COc1ccc(-c2c(-c3cc(OC)cc(OC)c3)n(C)c3ccc(-c4cnc(N)nc4)cc23)cc1 was run?
A: 0.974 µM

Q: Which AC40 does the source give for CCOc1ccc(NC2c3ccccc3C(=O)N2Cc2ccc3c(c2)OCO3)cc1 (stereo unspecified) here?
A: 16.3 µM

Q: For O=C(COc1ccc(Cl)cc1)NCCCNC(=O)c1cccnc1, which AC40 is on record?
A: 1.22 µM

Q: With CCn1c(SCC(=O)Nc2ccc(NC(=O)c3ccco3)cc2)nnc1-c1cccs1 as the compound, how does the AC40 read?
A: 1.7 µM

Q: With Cc1ccc(S(=O)(=O)Nc2ccc3c(c2)C(=O)N([C@@H](C)CO)C[C@@H](C)[C@H](CN(C)C(=O)Nc2cccc4ccccc24)OCCCC[C@H](C)O3)cc1 as the compound, how does the AC40 read?
A: 3.83 µM

Q: How did the AC40 turn out when CC(=O)CCS(=O)(=O)c1ccc(C)c(C)c1 was run?
A: 6.64 µM

Q: For COc1ccccc1OCC(=O)Nc1ccc(Cl)cc1C(=O)c1ccccc1, which AC40 is on record?
A: 7.29 µM

Q: How did the AC40 turn out when CC(=O)c1ccc(N2CCN(C(=O)C(=O)c3c(C)[nH]c4ccccc34)CC2)cc1 was run?
A: 0.996 µM

Q: Which AC40 does the source give for NC(=O)Cc1ccc2c(c1)[nH]c1ccccc12 here?
A: 1.33 µM

Q: How did the AC40 turn out when Cc1coc2cc3oc(=O)c(CCC(=O)NC4CC4)c(C)c3cc12 was run?
A: 1.6 µM

Q: For CC1CCCN(Cc2c(O)ccc3c(=O)c(-c4nc5ccccc5s4)c(N)oc23)C1 (stereo unspecified), which AC40 is on record?
A: 5.03 µM

Q: How did the AC40 turn out when C[C@@H]1CN([C@@H](C)CO)C(=O)c2c(c3ccccc3n2C)-c2ccccc2CO[C@@H]1CN(C)C(=O)Nc1cccc(C(F)(F)F)c1 was run?
A: 10 µM

Q: Which AC40 does the source give for N#Cc1ccc(C(=O)CSc2nnc(-c3ccc(C(F)(F)F)cn3)s2)cc1 here?
A: 17.8 µM

Q: How did the AC40 turn out when O=C(Nc1ccc(F)cc1F)N1CCCN(c2ccc([N+](=O)[O-])cn2)CC1 was run?
A: 3.36 µM
